The structures appear in SMILES notation.

Data set [1] deals with normal subjects and cancer patients. Nature of the data set: Phase 1a and 1b clinical studies of liposomal curcumin (14:0 lyso PG). It counts as in vivo, human. The text has this: To date, 45 normal subjects and 28 cancer patients have been tested in Phase 1a and 1b (ongoing) studies, respectively.
Data set [2] deals with guinea pigs. Nature of the data set: Effect of single oral doses of Moxifloxacin on QTc interval of instrumented guinea pigs, without or with 14:0 lyso PG. It counts as in vivo, guinea pig.
Data set [3] deals with guinea pigs. Nature of the data set: Effect of Fingolimod, verapamil and 14:0 lyso PG on QTc interval in instrumented guinea pigs. It counts as in vivo, guinea pig.
Data set [4] can be described thus: Prevention of drug-induced QTc prolongation in regulatory-validated preclinical models. The data set is classed as in vivo. Conditions: against Moxifloxacin; Nilotinib; Crizotinib; Sotalol; Curcumin; Nifedipine; Lovastatin; Thioridazine; Amiodarone; Terfenadine; E4031; Felbamate; Gilenya; Quizartinib (AC220); Forskolin; Turmerone.
For data set [5], the system named is guinea pigs. Nature of the data set: Effect of Fingolimod, verapamil and 14:0 lyso PG on PR intervals / AV block in instrumented guinea pigs. The data set is classed as in vivo, guinea pig. As for the experimental part: PR intervals were measured following the infusion of Fingolimod. Measurements of PR were stopped when the P wave disconnected from the QRS complexes, indicating 3rd degree AV block.
Fingolimod was administered by intravenous infusion to instrumented guinea pigs at doses ranging from 3 μg/kg to 300 μg/kg (n=6, green series, above). The intravenous route of administration was selected because it simplified the pharmacokinetics of this multi-drug experiment.
Again, the intravenous route of administration for both drugs was selected to simplify the kinetics of the experiment.

The next data set deals with IKr (Homo sapiens, UniProt Q12809). Conditions: cited from earlier work.
The subject of data set [6] is clinical volunteers and patients. Conditions: cited from earlier work.
The mark [7] stands for this setting: 14:0 lyso PG given orally prior to Fingolimod and/or verapamil.
Where [8] appears, read: 0.5 mg/kg verapamil i.v. 60 minutes before Fingolimod infusion.
Setting [9] is: intravenous infusion of Fingolimod alone.
Where [10] appears, read: oral 1.0 mg/kg 14:0 lyso PG, then verapamil, then Fingolimod infusion.

IKr, sequence (Q12809 whole entry): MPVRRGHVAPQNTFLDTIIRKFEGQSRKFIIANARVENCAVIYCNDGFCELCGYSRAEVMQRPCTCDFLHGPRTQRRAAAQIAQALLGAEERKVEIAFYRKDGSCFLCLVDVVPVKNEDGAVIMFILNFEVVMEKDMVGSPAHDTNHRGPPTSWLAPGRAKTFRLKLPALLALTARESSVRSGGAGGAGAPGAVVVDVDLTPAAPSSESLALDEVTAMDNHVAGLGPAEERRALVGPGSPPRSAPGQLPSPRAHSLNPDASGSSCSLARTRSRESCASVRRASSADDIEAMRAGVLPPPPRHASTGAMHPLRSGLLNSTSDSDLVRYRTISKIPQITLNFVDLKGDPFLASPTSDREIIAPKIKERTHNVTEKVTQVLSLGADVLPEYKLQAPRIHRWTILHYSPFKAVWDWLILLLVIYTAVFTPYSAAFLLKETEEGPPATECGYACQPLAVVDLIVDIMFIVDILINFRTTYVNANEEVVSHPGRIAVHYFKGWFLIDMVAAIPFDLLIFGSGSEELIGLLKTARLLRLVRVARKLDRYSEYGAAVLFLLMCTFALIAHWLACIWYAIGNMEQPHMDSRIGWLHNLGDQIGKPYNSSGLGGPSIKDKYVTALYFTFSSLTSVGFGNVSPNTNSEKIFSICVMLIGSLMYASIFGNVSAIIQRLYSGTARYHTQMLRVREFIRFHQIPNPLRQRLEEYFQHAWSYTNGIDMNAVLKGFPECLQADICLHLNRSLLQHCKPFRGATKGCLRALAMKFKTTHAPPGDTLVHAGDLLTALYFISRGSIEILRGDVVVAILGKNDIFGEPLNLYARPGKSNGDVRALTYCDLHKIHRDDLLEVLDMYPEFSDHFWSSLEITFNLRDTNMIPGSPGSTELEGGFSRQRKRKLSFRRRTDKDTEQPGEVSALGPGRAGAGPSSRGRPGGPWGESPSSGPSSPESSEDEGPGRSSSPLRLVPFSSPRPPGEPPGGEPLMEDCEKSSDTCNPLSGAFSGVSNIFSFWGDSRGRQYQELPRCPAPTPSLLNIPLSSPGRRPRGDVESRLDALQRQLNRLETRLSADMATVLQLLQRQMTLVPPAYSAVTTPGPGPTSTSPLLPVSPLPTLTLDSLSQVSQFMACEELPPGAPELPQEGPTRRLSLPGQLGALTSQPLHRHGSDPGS

`CCCCCCCCCCCCCC(=O)OC[C@@H](O)COP(=O)(O)OCC(O)CO` (mixture of isomers) [14:0 lyso PG, 1-myristoyl-2-hydroxy-sn-glycero-3-phospho-(1′-rac-glycerol)]: the adverse effects entry in data set [1] (exposure levels used in the curcumin Phase 1a and Phase 1b clinical trials) is given as “devoid of adverse effects”. For the same compound, the “clinical efficacy against curcumin: QT and QTc interval prolongation” value in data set [1] (ongoing Phase 1b study, human patients) was “preventing QT and QTc interval prolongation”. Besides, the “tolerability in clinical trials” value in data set [1] (orally-administered) is reported as “well-tolerated”. Besides, the “changes in QTc” value with guinea pigs [2] (concomitant oral 14:0 lyso PG with Moxifloxacin, 14:0 lyso PG:Moxifloxacin ratio 0.45:1, n=6) is “no, or very little, changes in QTc”. Also, the “shift in the QTc-dose response of Moxifloxacin” value in the data set with guinea pigs [2] (concomitant oral 14:0 lyso PG, ratio 0.45:1) is recorded as “statistically significant right-shift”. Besides, the “change in cardiac electrophysiology” value with guinea pigs [3] (guinea pig, in vivo, po, 1 mg/kg) is “no change in cardiac electrophysiology”. Further, the “QTc prolongation for any given dose of Fingolimod relative to verapamil+Fingolimod animals” value in the data set on guinea pigs [3] (oral 1.0 mg/kg 14:0 lyso PG, then 0.5 mg/kg verapamil i.v. at 60 min, Fingolimod i.v. at 120 min) was “⅓”. Further, in the data set with guinea pigs [3] (oral gavage formulation), the “Maximum Tolerated Dose (MTD)” value was “greater than the highest achievable dose in the oral formulation”. Also, in data set [4], the “QTc prolongation by other drugs” value is “prevents”. Besides, in the data set on guinea pigs [5] (setting [7]), the “right-shift of the appearance of 3rd-degree AV block compared to Fingolimod alone” value is recorded as 13 fold; the “right-shift of the appearance of 3rd-degree AV block compared to animals receiving both Fingolimod and verapamil” value amounted to 6.6 fold.

`CCCCCCCCc1ccc(CCC(N)(CO)CO)cc1` [Fingolimod]: the IKr inhibition entry on IKr is “approximately 64%”. Moreover, in data set [6] (Full Prescribing Information, Novartis), the “AV block in human patients” value is “produce AV block from the first dose”. Also, the QT/QTc prolongation entry in data set [6] (administered alone in healthy, naive animals and clinical volunteers) is “limited QT/QTc prolongation”. In data set [6] (clinical patients taking verapamil along with Fingolimod), the QTc intervals entry is on record as “severely prolonged QTc intervals”. Also, in data set [6] (therapeutic doses, in a pair of individuals (EMA Assessment Report)), the delays in repolarization is 60 ms. Besides, in the data set with guinea pigs [5] (setting [8]), the “Fingolimod dose at 1st-degree AV block” value stood at 0.007 mg/kg; the “Fingolimod dose at 3rd-degree dissociation between P waves and QRS complexes” value amounted to 0.045 mg/kg; the “Fingolimod dose at Mobitz-Type-1 2nd degree AV block” value amounted to 0.01 mg/kg. Also, in the data set with guinea pigs [5] (setting [9]), the “Fingolimod dose at 1st degree AV block” value worked out at 0.015 mg/kg; the “Fingolimod dose at 3rd degree AV block” value was found to be 0.023 mg/kg; the “Fingolimod dose at Mobitz Type-1, 2nd-degree AV block” value came out at 0.02 mg/kg. The “Fingolimod dose at 1st-degree AV block” value in the data set with guinea pigs [5] (oral 1.0 mg/kg 14:0 lyso PG, 0.5 mg/kg verapamil i.v. 60 min later, Fingolimod infusion 60 min post-verapamil) was determined as 0.2 mg/kg. Moreover, in the data set with guinea pigs [5] (setting [10]), the “Fingolimod dose at P-QRS dissociation, in the rest of the animals in the cohort” value was found to be 0.3 mg/kg; the “Fingolimod dose at P-QRS dissociation, in the two animals with Mobitz-Type-2 AV block” value was 0.051 mg/kg; the “animals with Mobitz-Type-2 AV block” value is reported as 2 out of 6. Also, in the data set on guinea pigs [5] (oral 1.0 mg/kg 14:0 lyso PG, then verapamil, then Fingolimod infusion, up to a dose of 200 μg/kg), the “changes in PR intervals” value is listed as “modest changes in PR intervals”.

(Values after patent publication US11806401B2, “Prevention of drug-induced atrio-ventricular block” (SignPath Pharma Inc., priority 2016, dated 2023).)
